Source: the supplement of paper PMC10307832

Tests used:
Experiment in all cases: relative viability (nuclei count vs DMSO), 5 days (fraction); higher = more cells survive
LK-2 = tested on: LK-2
In short: (§1)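 Lung cancer cell lines in 1536-well plates were dosed by pin tool the day after seeding, either with one drug alone or with a fixed anchor-drug dose plus five library-drug doses (not always all listed) in √10 steps. After 5 days, cells were fixed and their nuclei stained in one step (final 0.05% Triton X-100, 1% formaldehyde, 1 ug/ml Hoechst), then counted on 4× images. Relative viability is the nuclei count in treated wells divided by that in vehicle wells. Values are medians of duplicate plates.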

NCI-H1648 = tested on: NCI-H1648
In short: as §1

A-427 = tested on: A-427
In short: as §1

NCI-H1650 = tested on: NCI-H1650
In short: as §1

CAL-12T = tested on: CAL-12T
In short: as §1

NCI-H1623 = tested on: NCI-H1623
In short: as §1

UMC-11 = tested on: UMC-11
In short: as §1

NCI-H2009 = tested on: NCI-H2009
In short: as §1

NCI-H1734 = tested on: NCI-H1734
In short: as §1

Molecule `Nc1ccn([C@@H]2O[C@H](CO)[C@@H](O)[C@@H]2O)c(=O)n1` [Cytarabine] + COc1cccc2cc(-c3nc([C@H]4CC[C@H](C(=O)O)CC4)n4ncnc(N)c34)[nH]c12 [OSI-027] (partner 0.5 µM) has a relative viability (LK-2; first compound 0.005 µM) of 0.194, a relative viability (LK-2; first compound 0.01581 µM) of 0.175 and a relative viability (LK-2; first compound 0.05 µM) of 0.205. For the same molecule, the relative viability (LK-2; first compound 0.1581 µM) was 0.156, the relative viability (LK-2; first compound 0.5 µM) was 0.154 and the relative viability (NCI-H1648; first compound 0.005 µM) was 0.238. The relative viability (NCI-H1648; first compound 0.01581 µM) was 0.266, the relative viability (NCI-H1648; first compound 0.05 µM) was 0.246 and the relative viability (NCI-H1648; first compound 0.1581 µM) was 0.214. The relative viability (NCI-H1648; first compound 0.5 µM) was 0.263, the relative viability (A-427; first compound 0.005 µM) was 0.4 and the relative viability (A-427; first compound 0.01581 µM) was 0.259. For the same molecule, the relative viability (A-427; first compound 0.05 µM) was 0.275, the relative viability (A-427; first compound 0.1581 µM) was 0.16 and the relative viability (A-427; first compound 0.5 µM) was 0.177. It also gave a relative viability (NCI-H1650; first compound 0.005 µM) of 0.44, a relative viability (NCI-H1650; first compound 0.01581 µM) of 0.507 and a relative viability (NCI-H1650; first compound 0.05 µM) of 0.354. It also gave a relative viability (NCI-H1650; first compound 0.1581 µM) of 0.311, a relative viability (NCI-H1650; first compound 0.5 µM) of 0.259 and a relative viability (CAL-12T; first compound 0.005 µM) of 0.697. For the same molecule, the relative viability (CAL-12T; first compound 0.01581 µM) was 0.507, the relative viability (CAL-12T; first compound 0.05 µM) was 0.524 and the relative viability (CAL-12T; first compound 0.1581 µM) was 0.233. For the same molecule, the relative viability (CAL-12T; first compound 0.5 µM) was 0.197, the relative viability (NCI-H1623; first compound 0.005 µM) was 0.372 and the relative viability (NCI-H1623; first compound 0.01581 µM) was 0.376. It also gave a relative viability (NCI-H1623; first compound 0.05 µM) of 0.277, a relative viability (NCI-H1623; first compound 0.1581 µM) of 0.258 and a relative viability (NCI-H1623; first compound 0.5 µM) of 0.243. The relative viability (UMC-11; first compound 0.005 µM) was 0.314, the relative viability (UMC-11; first compound 0.01581 µM) was 0.418 and the relative viability (UMC-11; first compound 0.05 µM) was 0.386. It also gave a relative viability (UMC-11; first compound 0.1581 µM) of 0.226, a relative viability (UMC-11; first compound 0.5 µM) of 0.226 and a relative viability (NCI-H2009; first compound 0.005 µM) of 0.656. For the same molecule, the relative viability (NCI-H2009; first compound 0.01581 µM) was 0.642, the relative viability (NCI-H2009; first compound 0.05 µM) was 0.621 and the relative viability (NCI-H2009; first compound 0.1581 µM) was 0.454. The relative viability (NCI-H2009; first compound 0.5 µM) was 0.29, the relative viability (NCI-H1734; first compound 0.005 µM) was 0.355 and the relative viability (NCI-H1734; first compound 0.01581 µM) was 0.285. For the same molecule, the relative viability (NCI-H1734; first compound 0.05 µM) was 0.222, the relative viability (NCI-H1734; first compound 0.1581 µM) was 0.133 and the relative viability (NCI-H1734; first compound 0.5 µM) was 0.13.
`COc1cc2nccc(Oc3ccc(NC(=O)Nc4cc(C)on4)c(Cl)c3)c2cc1OC` [Tivozanib] + Cc1cc(Nc2cc(N3CCN(C)CC3)nc(Sc3ccc(NC(=O)C4CC4)cc3)n2)n[nH]1 [Tozasertib] (partner 0.1 µM) gave a relative viability (LK-2; first compound 0.005 µM) of 0.173, a relative viability (LK-2; first compound 0.01581 µM) of 0.175 and a relative viability (LK-2; first compound 0.05 µM) of 0.159. For the same molecule, the relative viability (LK-2; first compound 0.1581 µM) was 0.172, the relative viability (LK-2; first compound 0.5 µM) was 0.177 and the relative viability (NCI-H1648; first compound 0.005 µM) was 0.482. For the same molecule, the relative viability (NCI-H1648; first compound 0.01581 µM) was 0.534, the relative viability (NCI-H1648; first compound 0.05 µM) was 0.436 and the relative viability (NCI-H1648; first compound 0.1581 µM) was 0.536. For the same molecule, the relative viability (NCI-H1648; first compound 0.5 µM) was 0.545, the relative viability (A-427; first compound 0.005 µM) was 0.179 and the relative viability (A-427; first compound 0.01581 µM) was 0.23. It also gave a relative viability (A-427; first compound 0.05 µM) of 0.251, a relative viability (A-427; first compound 0.1581 µM) of 0.281 and a relative viability (A-427; first compound 0.5 µM) of 0.207. The relative viability (NCI-H1650; first compound 0.005 µM) was 0.445, the relative viability (NCI-H1650; first compound 0.01581 µM) was 0.436 and the relative viability (NCI-H1650; first compound 0.05 µM) was 0.421. The relative viability (NCI-H1650; first compound 0.1581 µM) was 0.349, the relative viability (NCI-H1650; first compound 0.5 µM) was 0.422 and the relative viability (CAL-12T; first compound 0.005 µM) was 0.281. For the same molecule, the relative viability (CAL-12T; first compound 0.01581 µM) was 0.314, the relative viability (CAL-12T; first compound 0.05 µM) was 0.373 and the relative viability (CAL-12T; first compound 0.1581 µM) was 0.277. It also gave a relative viability (CAL-12T; first compound 0.5 µM) of 0.299, a relative viability (NCI-H1623; first compound 0.005 µM) of 0.42 and a relative viability (NCI-H1623; first compound 0.01581 µM) of 0.467. The relative viability (NCI-H1623; first compound 0.05 µM) was 0.47, the relative viability (NCI-H1623; first compound 0.5 µM) was 0.424 and the relative viability (UMC-11; first compound 0.005 µM) was 0.208. The relative viability (UMC-11; first compound 0.01581 µM) was 0.2, the relative viability (UMC-11; first compound 0.05 µM) was 0.198 and the relative viability (UMC-11; first compound 0.5 µM) was 0.211. The relative viability (NCI-H2009; first compound 0.005 µM) was 0.708, the relative viability (NCI-H2009; first compound 0.01581 µM) was 0.738 and the relative viability (NCI-H2009; first compound 0.05 µM) was 0.733. The relative viability (NCI-H2009; first compound 0.1581 µM) was 0.725, the relative viability (NCI-H2009; first compound 0.5 µM) was 0.759 and the relative viability (NCI-H1734; first compound 0.005 µM) was 0.24. For the same molecule, the relative viability (NCI-H1734; first compound 0.01581 µM) was 0.258, the relative viability (NCI-H1734; first compound 0.05 µM) was 0.26 and the relative viability (NCI-H1734; first compound 0.1581 µM) was 0.275. It also gave a relative viability (NCI-H1734; first compound 0.5 µM) of 0.252.
